In patent publication US5444077A, “Ameliorant of cerebral circulation and optical isomer of NB-818, processes for its use” (Banyu Pharmaceutical Co., Ltd., priority 1987, dated 1995):

Experiments:
[1] = test system: cerebral regional blood flow; test: Effect to increase the cerebral regional blood flow in rabbits (Pharmacological Test Example 2); type: in vivo, rabbit; details: 0.01 mg/kg, intravenous
Method: A male rabbit having a body weight of about 3 kg was immobilized by intravenous injection of gallamine (2-3 mg/kg) and secured to an apparatus for fixing the brain position. Then, platinum electrodes for measuring hydrogen gas clearance were inserted to the top of cerebral cortex, to the center of the cerebellum and to the femoral muscle, and the blood flows were measured. The drug was dissolved in a 0.9 wt % saline containing 10% by weight of polyethylene glycol and 10% by weight of ethanol, and the solution was intravenously injected.

[2] = test system: vertebral artery; test: Effect to increase the blood flow of the vertebral artery in anesthetized beagle dogs (Pharmacological Test Example 1); type: in vivo, beagle dog
Method: Effect to increase the blood flow of the vertebral artery
A male or female beagle dog having a body weight of about 10 kg was anesthetized by subcutaneous administration of 35 mg/kg of sodium pentobarbital, and the level of anesthesia was maintained by continuous injection of from 4 to 6 mg/kg/hr of sodium pentobarbital.
The test was conducted by maintaining the blood gases under optimum conditions under artificial respiration. A drug was dissolved in a 0.9 wt % saline containing 10% by weight of polyethylene glycol and 10% by weight of ethanol, and a predetermined amount of the solution was intravenously or intraduodenally injected to the beagle dog. Then, the blood flow, the blood pressure and the heart rate were measured.
The blood flow was measured by an electromagnetic flow meter by means of blood flow probes attached to the vertebral artery and the femoral artery of the beagle dog. The blood pressure was measured by a pressure transducer connected to a canule inserted to the left femoral artery of the beagle dog.

[3] = test system: amnesia induced by ECS; test: Effect against amnesia induced by ECS, passive avoidance, post-treatment with drug administration (Pharmacological Test Example 5); type: in vivo, rat; details: 1 mg/kg p.o.
Excerpt: (§1) By using male rats having a body weight of about 200 g, the antiamnesic effect was examined on the basis of one trial passive avoidance reaction as an index. Namely, a rat is put in a light chamber of an operant box comprising the light chamber and a dark chamber, and when the rat entered into the dark chamber, an electric stimulation (5 mA for 10 seconds) was applied from the floor and immediately an electric shock (30 mA, 0.75 second) (hereinafter referred to simply as ECS) was applied to the head of the rat. Two hours or 24 hours after the ECS, the rat was put in the light chamber, and the time until the rat entered from the light chamber to the dark chamber (the latent reaction time) was measured,
In a separate test, the drug was orally administered at the same time as ECS, and the latent reaction time was measured two hours later, or NB-818 was again administered 22 hours later and then the latent reaction time was measured two hours later.

[4] = test system: cerebral isochemia models of Mongolian gerbils; test: Effect to prolong the life in the cerebral ischemia models of Mongolian gerbils (Pharmacological Test Example 4); type: in vivo, Mongolian gerbil; details: 0.01 mg/kg, intraperitoneal; control 100
Method: Effect to prolong the life in the cerebral isochemia models of Mongolian gerbils
A male Mongolian gerbil having a body weight of about 70 g was anesthetized by intraperitoneal administration of 70 mg/kg of ketamine hydrochloride. Then, left and right common carotid arteries were exposed and closed by scorbil clips for 20 minutes. Then, the clips were removed to regain the blood flow. Thirty minutes later, a drug dissolved in a 0.9 wt % saline containing 10% by weight of polyethylene glycol 300 and 10% by weight of ethanol, was intraperitoneally administered. The effect to prolong the life was determined by observing mortality and the neurotic symptom during 8 hours or 24 hours from the administration of the drug.

[5] = test system: cerebral regional blood flow; test: Effect to increase the cerebral regional blood flow in monkeys (Pharmacological Test Example 3); type: in vivo, Rhesus monkey; details: 0.01 mg/kg, intravenous
Method: Effect to increase the cerebral regional blood flow in monkeys
A male Rhesus monkey having a body weight of from 5.0 to 11.0 kg was anesthetized with ketamine hydrochloride (1 mg/kg by intravenous injection) and sodium pentobarbital (30 mg/kg by intraperitoneal injection), and an endotracheal tube was inserted for artificial respiration. Then, the animal's head was fixed to a stereotaxic apparatus. The cerebral blood flow was calculated from the hydrogen gas clearance curve measured by means of needle type electrodes for hydrogen gas clearance inserted to the cerebral cortex after incising the head and boring a hole in the occipital lobe.
The drug was dissolved in a 0.9 wt % saline containing 10% by weight of polyethylene glycol 300 and 10% by weight of ethanol, and the solution was intravenously administered.

[6] = Acute toxicity (LD50) upon oral administration to rats; details: rat, in vivo
Excerpt: Thus, it is particularly advantageous for the treatment and prevention of the above diseases, for which continuous administration for a long period of time is obliged. Thus, its value as a pharmaceutical is very high.

[7] = test system: amnesia induced by ECS; test: Effect against amnesia induced by ECS, passive avoidance, pretreatment with drug administration (Pharmacological Test Example 5); type: in vivo, rat; details: 3 mg/kg p.o.
Excerpt: as §1
The drug was suspended in a 0.5 wt % methyl cellulose and orally administered three times at intervals of 24 hours so that the final administration was conducted one hour prior to ECS.

Compound: COC(=O)C1=C(C)NC(COC(N)=O)=C(C(=O)OC(C)C)C1c1cccc(Cl)c1Cl (centres unmarked) [NB-818, 2-Carbamoyloxymethyl-4-(2,3-dichlorophenyl)-6-methyl-1,4-dihydropyridine-3,5-dicarboxylic acid 3-isopropyl ester 5-methyl ester]
- Blood flow change, cerebellum blood flow [1]: +85%
- Blood flow change, cerebral blood flow [1]: +82%
- Blood flow change, femoral muscle blood flow [1]: +3%
- Effective period (Half-life period) [1]: 44.6 min
- Change in blood pressure ([2]; 0.01 mg/kg iv): -14%
- Change in femoral artery blood flow ([2]; 0.01 mg/kg iv): +12%
- Change in vertebral artery blood flow ([2]; 0.01 mg/kg iv): +109%
- Effective period (Half-life period) ([2]; 0.01 mg/kg iv): 57 min
- Change in blood pressure ([2]; 0.1 mg/kg id (intraduodenal)): -18%
- Change in femoral artery blood flow ([2]; 0.1 mg/kg id (intraduodenal)): +36%
- Change in vertebral artery blood flow ([2]; 0.1 mg/kg id (intraduodenal)): +135%
- Effective period (Half-life period) ([2]; 0.1 mg/kg id (intraduodenal)): > 300 min
- influence over the blood pressure and the heart rate ([2]; at dose level selectively increasing vertebral artery blood flow): minimum
- Latent reaction time, acquisition test ([3]; control 9.0 ± 1.5): 8.3 ± 1.2 s
- Latent reaction time, 2 hours later ([3]; control 30.6 ± 3.0, * P < 0.05 vs control): 88.5 ± 17.9 s
- Latent reaction time, 24 hours later ([3]; control 42.5 ± 9.0, * P < 0.05 vs control): 111.8 ± 21.5 s
- Mortality, 0-8 hours [4]: 38.5%
- Mortality, 0-24 hours [4]: 76.9%
- Change in blood pressure [5]: -20%
- Change in cerebral cortex blood flow [5]: +28%
- Change in heart rate [5]: +16%
- Effective period (Half-life period) [5]: > 60 min
- LD50 [6]: ≥ 3000 mg/kg
- Latent reaction time, acquisition test ([7]; control 8.6 ± 1.3): 11.4 ± 1.3 s
- Latent reaction time, 2 hours later ([7]; control 49.2 ± 8.1, * P < 0.05 vs control): 128.8 ± 21.8 s
- Latent reaction time, 24 hours later ([7]; control 85.6 ± 22.0, * P < 0.05 vs control): 189.6 ± 24.6 s
